Test results: paper PMC7618036, “An oral heme oxygenase inhibitor targets immunosuppressive perivascular macrophages in preclinical models of cancer” (Science translational medicine, 2025)
Like-named read-outs stand apart in the source and are kept apart here.

Legend:
[1] = parameters: method as in PMID 2714739; details: cited from earlier work
[2] = In vivo PK study in male ICR mice; details: mouse, 25 umol/kg
Description: (A) Chemical structure of KCL-HO-1i. […] (G-I) Schematic depicting the transgene of the HO-1 reporter mice (HO-1^Luc/eGFP) (upper panel) and the experimental outline (below) (G). […] Whole mouse total photon flux at each timepoint and condition was quantitated (H). Heat map displaying luciferase expression across the indicated dissected tissues (left panel) and their percentage change relative to vehicle treated animals (right panel) (I) (cohorts of n=6 mice). Images in panel (D) and (G) were created using BioRender. Bar charts show the mean, error bars SD, and the dots show individual data points from individual mice. Line charts display the mean and SEM. * P<0.05, ** P<0.01, **** P<0.0001.
Pharmacokinetics studies were performed by Pharmacology Discovery Services (PDS) Taiwan, Ltd. as a contract research organization. A single dose of 25 µMol/Kg was administered to male ICR mice via the indicated route and blood aliquots (∼300 μL) were obtained via cardiac puncture from euthanised mice using tubes coated with lithium heparin at the indicated times. Blood samples were then gently mixed and centrifuged at 2,500 x g for 15 min at 4 °C within an hour of collection. Subsequently, the plasma samples were harvested and stored frozen at -70°C until further processing. The plasma samples underwent methanol (MeOH) precipitation and were analysed using LC-MS/MS. An Agilent Poroshell 120 EC-C18 column with dimensions of 2.7 μm (3.0 x 50 mm) was utilized for chromatographic separation. The mobile phase consisted of 0.2 % formic acid (FA) in water (solvent A) and 0.2 % FA in acetonitrile (ACN; solvent B), with a gradient from 10 % to 80 % (solvent B) over a 2.5-min period at a flow rate of 0.5 mL/min with a sample injection volume of 5 µL. The bioanalytical method involved utilizing mouse plasma as the sample matrix and 20 μL of sample into a well of a 96-well plate. Subsequently, 300 μL of 0.01 ng/μL oxybutynin internal standard (IS) in MeOH was added to each well, excluding double blank (00) and carryover. For the double blank well and carryover, 300 μL of MeOH was added. After vortexing for 1 min and centrifuging at 1000 x g for 5 min, 200 μL of supernatant was taken and mixed with 300 μL of MeOH/water (50/50) for LC-MS/MS analysis. Finally, the exposure levels (ng/mL) of KCL-HO1i in plasma samples were determined using LC-MS/MS.

Question: With “Sn (IV) mesoporphyrin IX dichloride [SnMP]” as the substance, how does the oral bioavailability [1] read?
Answer: The oral bioavailability was “not orally bioavailable”.

Question: What about the serum half-life [1] of the same substance?
Answer: The serum half-life was “short”.

Question: And the “maximum serum concentration (Cmax)” value ([2]; ip)?
Answer: The value was 68 ± 19 µg/mL.

Question: And the “serum half-life (T1/2)” value ([2]; ip)?
Answer: The value was 4 h.

Question: And the “time to maximum serum concentration (Tmax)” value ([2]; ip)?
Answer: Its value is 1 h.

Question: What about the oral bioavailability ([2]; po) of the same substance?
Answer: Its oral bioavailability is “not orally bioavailable”.
